Columns and labels:
Assay in all cases: area over the GR curve, 72 h; higher = more effect;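 note: Dye Drop or Deep Dye Drop imaging of viable cells in 384-well plates (Hoechst nuclei, LIVE/DEAD dye), nine half-log doses, GR normalized to DMSO controls and time-zero plates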
SUM159 = tested on: SUM159
UACC893 = tested on: UACC893
BT474 = tested on: BT474
HCC1569 = tested on: HCC1569
MDAMB231 = tested on: MDAMB231
T47D = tested on: T47D
HS578T = tested on: HS578T
HCC38 = tested on: HCC38
SUM52PE = tested on: SUM52PE
MCF7 = tested on: MCF7
EFM19 = tested on: EFM19
SUM229PE = tested on: SUM229PE
HCC1143 = tested on: HCC1143

| Compound | area over the GR curve (SUM159) | area over the GR curve (UACC893) | area over the GR curve (BT474) | area over the GR curve (HCC1569) | area over the GR curve (MDAMB231) | area over the GR curve (T47D) | area over the GR curve (HS578T) | area over the GR curve (HCC38) | area over the GR curve (SUM52PE) | area over the GR curve (MCF7) | area over the GR curve (EFM19) | area over the GR curve (SUM229PE) | area over the GR curve (HCC1143) | area over the GR curve (SUM159; main component drawn) | area over the GR curve (MDAMB231; main component drawn) | area over the GR curve (T47D; main component drawn) | area over the GR curve (HS578T; main component drawn) | area over the GR curve (HCC38; main component drawn) | area over the GR curve (MCF7; main component drawn) | area over the GR curve (HCC1143; main component drawn) |
| --- | --- | --- | --- | --- | --- | --- | --- | --- | --- | --- | --- | --- | --- | --- | --- | --- | --- | --- | --- | --- |
| COc1cccc(OCCCN)c1-c1cc(Nc2cnc(C#N)cn2)n[nH]1 | 0.533 GR | 0.171 GR | 0.186 GR | 0.355 GR | 1.09 GR | 0.18 GR | 1.3 GR | 0.858 GR | 0.425 GR | 0.794 GR | 0.041 GR | 0.342 GR | 0.619 GR | – | – | – | – | – | – | – |
| Cc1nc(NC(=O)N2CCC[C@H]2C(N)=O)sc1-c1ccnc(C(C)(C)C(F)(F)F)c1 [Alpelisib/BYL719] (max 10 µM) | 0.056 GR | 0.492 GR | 0.468 GR | 0.0913 GR | 0.0895 GR | 0.455 GR | 0.0905 GR | 0.0391 GR | 0.19 GR | 0.326 GR | 0.445 GR | 0.128 GR | 0.174 GR | – | – | – | – | – | – | – |
| CC(=O)c1c(C)c2cnc(Nc3ccc(N4CCN(CCOCCOCCOCCNC(=O)COc5cccc6c5C(=O)N(C5CCC(=O)NC5=O)C6=O)CC4)cn3)nc2n(C2CCCC2)c1=O (stereo not drawn) [BSJ-03-123] (max 10 µM) | 0.265 GR | 0.34 GR | 0.464 GR | 0.183 GR | 0.353 GR | 0.746 GR | 0.298 GR | 0.566 GR | 0.219 GR | 0.306 GR | 0.318 GR | 0.286 GR | 0.265 GR | – | – | – | – | – | – | – |
| CC(=O)c1c(C)c2cnc(Nc3ccc(N4CCNCC4)cn3)nc2n(C2CCCC2)c1=O (max 3.162 µM) | 0.186 GR | 0.436 GR | 0.194 GR | 0.0095 GR | 0.345 GR | 0.45 GR | 0.32 GR | 0.371 GR | 0.201 GR | 0.346 GR | 0.179 GR | 0.223 GR | 0.255 GR | – | – | – | – | – | – | – |
| CS(=O)(=O)N1CCN(Cc2cc3nc(-c4cccc5[nH]ncc45)nc(N4CCOCC4)c3s2)CC1 [Pictilisib/GDC0941] (max 10 µM) | 0.129 GR | 0.323 GR | 0.588 GR | 0.346 GR | 0.206 GR | 0.477 GR | 0.311 GR | 0.118 GR | 0.364 GR | 0.506 GR | 0.439 GR | 0.137 GR | 0.32 GR | – | – | – | – | – | – | – |
| Cc1cc(Nc2ncc(Cl)c(Nc3ccccc3S(=O)(=O)C(C)C)n2)c(OC(C)C)cc1C1CCNCC1 [Ceritinib/LDK378] (max 10 µM) | 0.213 GR | -0.0026 GR | -0.229 GR | 0.124 GR | 0.344 GR | 0.312 GR | 0.305 GR | 0.208 GR | 0.0274 GR | 0.457 GR | 0.0971 GR | 0.0779 GR | 0.285 GR | – | – | – | – | – | – | – |
| CC(=O)Nc1cccc(-n2c(=O)n(C3CC3)c(=O)c3c(Nc4ccc(I)cc4F)n(C)c(=O)c(C)c32)c1 (max 1 µM) | 0.347 GR | 0.434 GR | -0.316 GR | 0.135 GR | 0.722 GR | 0.213 GR | 0.491 GR | 0.207 GR | 0.224 GR | 0.277 GR | -0.1 GR | 0.472 GR | 0.538 GR | – | – | – | – | – | – | – |
| CC[C@@]1(O)C(=O)OCc2c1cc1n(c2=O)Cc2cc3c(CN(C)C)c(O)ccc3nc2-1 [Topotecan] (max 10 µM) | 0.864 GR | – | – | – | 0.704 GR | 0.959 GR | 1.02 GR | 1.07 GR | – | 0.854 GR | – | – | 0.904 GR | – | – | – | – | – | – | – |
| CCNC(=O)c1noc(-c2cc(C(C)C)c(O)cc2O)c1-c1ccc(CN2CCOCC2)cc1 [Luminespib/NVP-AUY922] (max 1 µM) | 0.53 GR | 1.07 GR | 0.781 GR | 0.513 GR | 0.645 GR | 0.51 GR | 0.67 GR | 0.624 GR | 0.6 GR | 0.513 GR | 0.35 GR | 0.729 GR | 0.693 GR | – | – | – | – | – | – | – |
| COc1cc2nccc(Oc3ccc(NC(=O)C4(C(=O)Nc5ccc(F)cc5)CC4)cc3)c2cc1OC [Cabozantinib] (max 10 µM) | 0.059 GR | -0.159 GR | -0.109 GR | 0.0157 GR | 0.141 GR | 0.0578 GR | 0.134 GR | 0.0283 GR | 0.249 GR | 0.107 GR | -0.0111 GR | 0.0356 GR | 0.102 GR | – | – | – | – | – | – | – |
| NC(=O)Nc1cc(-c2cccc(F)c2)sc1C(=O)N[C@H]1CCCNC1 [AZD7762] (max 10 µM) | 0.277 GR | 0.431 GR | 0.0464 GR | 0.772 GR | 0.527 GR | -0.0211 GR | 0.863 GR | 0.916 GR | 0.634 GR | 0.597 GR | 0.222 GR | 0.588 GR | 0.621 GR | – | – | – | – | – | – | – |
| CN(C)C(=O)c1cc2cnc(Nc3ccc(N4CCNCC4)cn3)nc2n1C1CCCC1 [LEE011/Ribociclib] (max 10 µM) | 0.244 GR | 0.53 GR | 0.412 GR | -0.108 GR | 0.365 GR | 0.668 GR | 0.351 GR | 0.417 GR | 0.215 GR | 0.442 GR | 0.315 GR | 0.221 GR | 0.27 GR | – | – | – | – | – | – | – |
| COc1cccc2c1C(=O)c1c(O)c3c(c(O)c1C2=O)C[C@@](O)(C(=O)CO)C[C@@H]3O[C@H]1C[C@H](N)[C@H](O)[C@H](C)O1 [Doxorubicin] (max 3.162 µM) | 0.624 GR | 0.611 GR | 0.578 GR | 0.492 GR | 0.818 GR | 0.919 GR | 0.801 GR | 0.78 GR | 0.321 GR | 0.636 GR | 0.448 GR | 0.453 GR | 0.718 GR | – | – | – | – | – | – | – |
| CCc1cnn2c(NCc3ccc[n+]([O-])c3)cc(N3CCCC[C@H]3CCO)nc12 (max 1 µM) | 0.465 GR | 0.67 GR | 0.728 GR | 0.541 GR | 0.663 GR | 0.47 GR | 0.616 GR | 0.62 GR | 0.491 GR | 0.644 GR | 0.459 GR | 0.532 GR | 0.545 GR | – | – | – | – | – | – | – |
| CN(C)C/C=C/C(=O)Nc1ccc(C(=O)N2CCC[C@@H](Nc3ncc(Cl)c(-c4c[nH]c5ccccc45)n3)C2)cc1 [THZ531] (max 1 µM) | 0.0413 GR | 0.437 GR | 0.572 GR | 0.312 GR | 0.205 GR | 0.229 GR | 0.377 GR | 0.223 GR | 0.222 GR | 0.344 GR | 0.167 GR | 0.132 GR | 0.266 GR | – | – | – | – | – | – | – |
| CN(C)C/C=C/C(=O)Nc1ccc(O[C@@H]2CCC[C@@H](Nc3ncc(Cl)c(-c4c[nH]c5ccccc45)n3)C2)cc1 [BSJ-01-175] (max 10 µM) | 0.646 GR | 0.927 GR | 0.826 GR | 0.907 GR | 0.991 GR | 0.537 GR | 1.07 GR | 0.603 GR | 0.618 GR | 1.19 GR | 0.3 GR | 0.745 GR | 0.684 GR | – | – | – | – | – | – | – |
| C=CCn1c(=O)c2cnc(Nc3ccc(N4CCN(C)CC4)cc3)nc2n1-c1cccc(C(C)(C)O)n1 [AZD1775] (max 10 µM) | 0.253 GR | 0.488 GR | 0.387 GR | 0.825 GR | 0.606 GR | 0.113 GR | 0.759 GR | 0.961 GR | 0.158 GR | 0.692 GR | 0.23 GR | 0.756 GR | 0.355 GR | – | – | – | – | – | – | – |
| CN1CCN(CCOc2cc(OC3CCOCC3)c3c(Nc4c(Cl)ccc5c4OCO5)ncnc3c2)CC1 [Saracatinib/AZD0530] (max 10 µM) | 0.0365 GR | 0.11 GR | 0.303 GR | 0.188 GR | 0.269 GR | 0.171 GR | 0.159 GR | 0.101 GR | 0.0817 GR | 0.322 GR | 0.149 GR | 0.131 GR | 0.237 GR | – | – | – | – | – | – | – |
| N.N.[Cl][Pt][Cl] [Cisplatin] (max 10 µM) | 0.137 GR | – | – | – | 0.15 GR | 0.214 GR | 0.235 GR | 0.257 GR | – | 0.0631 GR | – | – | 0.303 GR | – | – | – | – | – | – | – |
| CCOc1cc2ncc(C#N)c(Nc3ccc(OCc4ccccn4)c(Cl)c3)c2cc1NC(=O)/C=C/CN(C)C [Neratinib/HKI272] (max 3.162 µM) | 0.101 GR | 1.17 GR | 1.43 GR | 0.397 GR | 0.105 GR | 0.274 GR | 0.202 GR | 0.102 GR | 0.0354 GR | 0.142 GR | 0.0236 GR | 0.24 GR | 0.238 GR | – | – | – | – | – | – | – |
| CNC(=O)c1cccc(-c2ccc3c(N4CCOC[C@@H]4C)nc(N4CCOC[C@@H]4C)nc3n2)c1 [AZD2014] (max 10 µM) | 0.481 GR | 0.845 GR | 1.01 GR | 0.625 GR | 0.405 GR | 0.959 GR | 0.504 GR | 0.418 GR | 0.682 GR | 0.854 GR | 0.829 GR | 0.484 GR | 0.422 GR | – | – | – | – | – | – | – |
| CO[C@@H](C)Cn1c(=O)n(C)c2cnc3ccc(-c4cncc(C(C)(C)O)c4)cc3c21 (max 10 µM) | 0.727 GR | 0.992 GR | 1.15 GR | 0.768 GR | 0.607 GR | 0.894 GR | 0.688 GR | 0.664 GR | 0.75 GR | 0.834 GR | 0.813 GR | 0.409 GR | 0.446 GR | – | – | – | – | – | – | – |
| COc1cc([C@@H]2c3cc4c(cc3[C@@H](O[C@@H]3O[C@@H]5CO[C@@H](C)O[C@H]5[C@H](O)[C@H]3O)[C@H]3COC(=O)[C@H]23)OCO4)cc(OC)c1O [Etoposide] (max 10 µM) | 0.413 GR | – | – | – | 0.298 GR | 0.666 GR | 0.377 GR | 0.449 GR | – | 0.499 GR | – | – | 0.384 GR | – | – | – | – | – | – | – |
| Cc1c(N)nc([C@H](CC(N)=O)NC[C@H](N)C(N)=O)nc1C(=O)N[C@H](C(=O)N[C@H](C)[C@@H](O)[C@H](C)C(=O)N[C@H](C(=O)NCCc1nc(-c2nc(C(=O)NCCC[S+](C)C)cs2)cs1)[C@@H](C)O)[C@@H](OC1OC(CO)C(O)C(O)C1OC1OC(CO)C(O)C(OC(N)=O)C1O)c1cnc[nH]1 (stereo partly drawn) [Bleomycin] (max 10 µM) | – | – | – | – | – | – | – | – | – | – | – | – | – | 0.463 GR | 0.132 GR | 0.462 GR | 0.446 GR | 0.485 GR | 0.555 GR | 0.658 GR |
